In patent publication US20040121316A1 (priority 2002, published 2004):
Like-named read-outs stand apart in the source and are kept apart here.

Test system: wild-type HIV-1 strain IIIB
Experiment: microbe, parasite or virus in culture
Format: cell-based
Set-up: scale not given here
[1] = Human immunodeficiency virus 1, IIIB
[2] = Human immunodeficiency virus 1, IIIB, MT2, 120 h, read-out: Anti-HIV-1 Cell Culture Activity EC50

CC(C)CN(CC(O)C(Cc1ccc(OCP(=O)(O)O)cc1)NC(=O)OC1COC2OCCC12)S(=O)(=O)N1CCN(C)CC1 (stereo not shown)
EC50 [1]: > 5 µM

COc1ccc(S(=O)(=O)N(CC(C)C)CC(O)C(Cc2ccccc2)NC(=O)OC2COC3OCCC23)cc1OCP(=O)(OCc1ccccc1)OCc1ccccc1 (stereo not shown)
EC50 [1]: 0.5 to 5 µM

CCOC(=O)CNP(=O)(COc1ccc(CC(NC(=O)OC2COC3OCCC23)C(O)CN(CC(C)C)S(=O)(=O)c2ccc(OC)cc2)cc1)NCC(=O)OCC (stereo not shown) [Compound 16a]
EC50 [2]: 0.33 ± 0.23 µM

CCCCOC(=O)C(CC)NP(=O)(COc1ccc(CC(NC(=O)OC2COC3OCCC23)C(O)CN(CC(C)C)S(=O)(=O)c2ccc(OC)cc2)cc1)NC(CC)C(=O)OCCCC (stereo not shown) [Example 16f]
EC50 [2]: 0.0048 ± 0.0018 µM

CCCCOC(=O)C(CC(C)C)NP(=O)(COc1ccc(CC(NC(=O)OC2COC3OCCC23)C(O)CN(CC(C)C)S(=O)(=O)c2ccc(OC)cc2)cc1)NC(CC(C)C)C(=O)OCCCC (stereo not shown) [Example 16h]
EC50 [2]: 0.12 ± 0.042 µM

CCOC(=O)C(CC)NP(=O)(COc1ccc(CC(NC(=O)OC2COC3OCCC23)C(O)CN(CC(C)C)S(=O)(=O)c2ccc(OC)cc2)cc1)Oc1ccccc1 (stereo not shown) [Example 16576]
EC50 (read-out: EC50): 0.0126 ± 0.0048 µM

COc1ccc(S(=O)(=O)N(CC(C)C)C[C@@H](O)[C@H](Cc2ccc(OCP(=O)(O)O)cc2)NC(=O)O[C@H]2CO[C@H]3OCC[C@H]32)cc1 [GS8373]
EC50 (read-out: EC50): 4.8 µM

CC(C)CN(C[C@@H](O)[C@H](Cc1ccc([N+](=O)[O-])cc1)NC(=O)O[C@H]1CO[C@H]2OCC[C@H]21)S(=O)(=O)c1ccc(OCP(=O)(Oc2ccccc2)Oc2ccccc2)cc1 [NO2, phenol]
EC50 (read-out: EC50): < 0.05 µM

CC(C)CN(CC(O)C(Cc1ccc(OCCN(C)C)cc1)NC(=O)OC1COC2OCCC12)S(=O)(=O)c1ccc(OCP(=O)(OCc2ccccc2)OCc2ccccc2)cc1 (stereo not shown) [OC2H4-NMe2, OBn]
EC50 (read-out: EC50): 0.05 to 0.5 µM

CC(C)CN(CC(O)C(Cc1ccc(OCCN(C)C)cc1)NC(=O)OC1COC2OCCC12)S(=O)(=O)c1ccc(OCP(=O)(O)O)cc1 (stereo not shown) [OC2H4NMe2, OH]
EC50 (read-out: EC50): 0.5 to 5 µM

CC(C)CN(CC(O)C(Cc1ccc(O)cc1)NC(=O)OC1COC2OCCC12)S(=O)(=O)c1ccc(OCP(=O)(OCc2ccccc2)OCc2ccccc2)cc1 (stereo not shown) [OH, OBn]
EC50 (read-out: EC50): 0.05 to 0.5 µM

CC(C)CN(CC(O)C(Cc1ccc(O)cc1)NC(=O)OC1COC2OCCC12)S(=O)(=O)c1ccc(OCP(=O)(O)O)cc1 (stereo not shown) [OH, OH]
EC50 (read-out: EC50): > 5 µM

COc1ccc(S(=O)(=O)N(CC(C)C)C[C@@H](OP(=O)(O)O)[C@H](Cc2ccccc2)NC(=O)O[C@H]2CO[C@H]3OCC[C@H]32)cc1 [Phosphate prodrug of 94-003]
EC50 (read-out: EC50): < 0.05 µM

CC(C)CN(C[C@@H](OP(=O)(O)O)[C@H](Cc1ccccc1)NC(=O)O[C@H]1CCOC1)S(=O)(=O)c1ccc(N)cc1 [Phosphate prodrug of ampenavir]
EC50 (read-out: EC50): 0.05 to 0.5 µM

CC(C)CN(C[C@@H](O)[C@H](Cc1ccccc1)NC(=O)O[C@H]1CO[C@H]2OCC[C@H]21)S(=O)(=O)c1ccc(N)cc1 [TMC114, reference compound]
EC50 [1]: < 0.05 µM

COc1ccc(S(=O)(=O)N(CC(C)C)CC(O)C(Cc2ccc(OCP(=O)(OCC(F)(F)F)OCC(F)(F)F)cc2)NC(=O)OC2COC3OCCC23)cc1 (stereo not shown) [drawing 608 R1=OCH2CF3 R2=OCH2CF3]
EC50 [1]: > 5 µM

CCOP(=O)(COc1ccc(CC(NC(=O)OC2COC3OCCC23)C(O)CN(CC(C)C)S(=O)(=O)c2ccc(OC)cc2)cc1)OCC (stereo not shown) [drawing 608 R1=OEt R2=OEt]
EC50 [1]: < 0.05 µM

COc1ccc(S(=O)(=O)N(CC(C)C)CC(O)C(Cc2ccc(OCP(=O)(OC)OC)cc2)NC(=O)OC2COC3OCCC23)cc1 (stereo not shown) [drawing 608 R1=OMe R2=OMe]
EC50 [1]: < 0.05 µM

COc1ccc(S(=O)(=O)N(CC(C)C)CC(O)C(Cc2ccc(OCP(=O)(OC(C)C)OC(C)C)cc2)NC(=O)OC2COC3OCCC23)cc1 (stereo not shown) [drawing 608 R1=OiPr R2=OiPr]
EC50 [1]: < 0.05 µM

CCOP(=O)(COc1ccc(CC(NC(=O)OC2COC3OCCC23)C(O)CN(CC(C)C)S(=O)(=O)c2ccc(O)cc2)cc1)OCC (stereo not shown) [drawing 609 R1=Et R2=Et]
EC50 [1]: < 0.05 µM

CC(C)CN(CC(O)C(Cc1ccc(OCP(=O)(O)O)cc1)NC(=O)OC1COC2OCCC12)S(=O)(=O)c1ccc(O)cc1 (stereo not shown) [drawing 609 R1=OH R2=OH]
EC50 [1]: 0.5 to 5 µM

CCCCOC(=O)C(C)NP(=O)(COc1ccc(CC(NC(=O)OC2COC3OCCC23)C(O)CN(CC(C)C)S(=O)(=O)c2ccc(OC)cc2)cc1)NC(C)C(=O)OCCCC (stereo not shown) [drawing 612 R1=Ala-Bu R2=Ala-Bu]
EC50 [1]: < 0.05 µM

CCCCOC(=O)CNP(=O)(COc1ccc(CC(NC(=O)OC2COC3OCCC23)C(O)CN(CC(C)C)S(=O)(=O)c2ccc(OC)cc2)cc1)NCC(=O)OCCCC (stereo not shown) [drawing 612 R1=Gly-Bu R2=Gly-Bu]
EC50 [1]: < 0.05 µM

CCOC(=O)CNP(=O)(COc1ccc(CC(NC(=O)OC2COC3OCCC23)C(O)CN(CC(C)C)S(=O)(=O)c2ccc(OC)cc2)cc1)NCC(=O)OCC (stereo not shown) [drawing 612 R1=Gly-Et R2=Gly-Et]
EC50 [1]: 0.05 to 0.5 µM

CCOC(=O)C(CC(C)C)NP(=O)(COc1ccc(CC(NC(=O)OC2COC3OCCC23)C(O)CN(CC(C)C)S(=O)(=O)c2ccc(OC)cc2)cc1)NC(CC(C)C)C(=O)OCC (stereo not shown) [drawing 612 R1=Leu-Et R2=Leu-Et]
EC50 [1]: < 0.05 µM

COc1ccc(S(=O)(=O)N(CC(C)C)CC(O)C(Cc2ccc(OCP(=O)(O)NC(C)C(=O)O)cc2)NC(=O)OC2COC3OCCC23)cc1 (stereo not shown) [drawing 614 R1=OH R2=Ala-OH]
EC50 [1]: > 5 µM

CCOP(=O)(CCNCc1ccc(CC(NC(=O)OC2COC3OCCC23)C(O)CN(CC(C)C)S(=O)(=O)c2ccc(OC)cc2)cc1)OCC (stereo not shown) [drawing 619 R1=Et R2=Et]
EC50: + + +

COc1ccc(S(=O)(=O)N(CC(C)C)CC(O)C(Cc2ccc(CNCCP(=O)(O)O)cc2)NC(=O)OC2COC3OCCC23)cc1 (stereo not shown) [drawing 619 R1=H R2=H]
EC50 [1]: > 5 µM
